Our source for the Ki values is US10954193B2 (Vanderbilt University, priority 2013, dated 2021).

This assay has as its target recombinant Mcl-1 (residues 172-327) (Homo sapiens (Human), UniProt Q07820). The assay is described as follows: Bak peptide binding assay, fluorescence polarization anisotropy competition (FITC-Bak), Mcl-1.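 Further: displacement of labeled Bak peptide read by fluorescence anisotropy, 10-point threefold dilutions from 20 µM top dose in 5% DMSO, 90 min incubation at room temperature.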 The conditions noted are these: Table 3, binned ranges; FITC-Bak peptide 10 nM, Mcl-1 14 nM; read-out: Ki for inhibition of Mcl-1. A general note: Polarisation of emitted light reports the rotation of a fluorescent probe.

recombinant Mcl-1 (residues 172-327), sequence (Q07820 172-327): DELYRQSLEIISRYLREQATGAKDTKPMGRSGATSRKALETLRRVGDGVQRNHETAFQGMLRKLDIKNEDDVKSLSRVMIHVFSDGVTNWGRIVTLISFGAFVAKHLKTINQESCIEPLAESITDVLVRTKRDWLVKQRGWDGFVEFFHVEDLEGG
Procedure: Bak Peptide Binding Assay
Compound affinity was measured using a fluorescence polarization anisotropy competition assay. Anisotropy measurements were carried out in 384-well, black, flat-bottom plates (Greiner Bio-one, Monroe, N.C., USA). […] 10 nM FITC-Bak peptide and 14 nM recombinant Mcl-1 (residues 172-327) were added to assay buffer (3 mM dithiothreitol, 50 mM NaCl, 20 mM Tris, pH 7.5).
Compounds are diluted in DMSO in a 10-point, 3-fold serial dilution scheme. 2.5 uL compound is added to 47.5 uL of assay buffer containing FITC-Bak and protein, for a final DMSO concentration of 5% and a top concentration of 20 uM. […] The plate was mixed and incubated for 90 minutes at room temperature. Anisotropy is measured at excitation wavelength 480 nm and emission wavelength 535 nm using an EnVision Multi-label plate reader (PerkinElmer, Wellesley, Mass., USA).

In general, Ki refers to a dissociation constant, usually derived from enzyme kinetics or from competition with a known ligand. With `Cc1cc(OCCCc2c(C#N)n(CC(=O)NS(C)(=O)=O)c3ccccc23)cc(C)c1Cl` [Example 50, 2-(3-(3-(4-chloro-3,5-dimethylphenoxy)propyl)-2-cyano-1H-indol-1-yl)-N-(methylsulfonyl)acetamide], the Ki was 1 to 9.99 µM.
Next, `Cc1cc(OCCn2cc(CC(=O)O)c3ccccc32)cc(C)c1Cl` [Example 62, 2-(1-(2-(4-chloro-3,5-dimethylphenoxy)ethyl)-1H-indol-3-yl)acetic acid]: 1 to 9.99 µM; `Cc1cc(OCCCc2c(C)n(CC(=O)O)c3c(-c4ccnn4C)cccc23)cc(C)c1Cl` [Example 64, 2-(3-(3-(4-chloro-3,5-dimethylphenoxy)propyl)-2-methyl-7-(1-methyl-1H-pyrazol-5-yl)-1H-indol-1-yl)acetic acid]: 0.101 to 0.299 µM; `Cc1cc(OCCCc2c(C)n(CC(=O)O)c3c(-c4c(C)noc4C)cccc23)cc(C)c1Cl` [Example 66, 2-(3-(3-(4-chloro-3,5-dimethylphenoxy)propyl)-7-(3,5-dimethylisoxazol-4-yl)-2-methyl-1H-indol-1-yl)acetic acid]: 0.101 to 0.299 µM.
As for `Cc1cnccc1-c1cccc2c(CCCOc3cc(C)c(Cl)c(C)c3)c(C)n(CC(=O)O)c12` [Example 67], the figure is 0.101 to 0.299 µM.
As for `Cc1cc(OCCCc2c(C)n(CC(=O)O)c3c(-c4cccn4C)cccc23)cc(C)c1Cl` [Example 68, 2-(3-(3-(4-chloro-3,5-dimethylphenoxy)propyl)-2-methyl-7-(1-methyl-1H-pyrrol-2-yl)-1H-indol-1-yl)acetic acid], the figure is 0.101 to 0.299 µM; as for `Cc1cnccc1-c1cccc2c(CCCOc3cc(C)c(Cl)c(C)c3)c(C)n(CCC(=O)O)c12` [Example 72, 3-(3-(3-(4-chloro-3,5-dimethylphenoxy)propyl)-2-methyl-7-(3-methylpyridin-4-yl)-1H-indol-1-yl)propanoic acid], at most 0.1 µM.
`Cc1cc(OCCCc2c(C)n(CCC(=O)O)c3c(-c4cccn4C)cccc23)cc(C)c1Cl` [Example 73, 3-(3-(3-(4-chloro-3,5-dimethylphenoxy)propyl)-2-methyl-7-(1-methyl-1H-pyrrol-2-yl)-1H-indol-1-yl)propanoic acid]: the inhibition constant (Ki) was at most 0.1 µM.
Next, `Cc1cc(OCCCc2c(C)n(CCC(=O)O)c3c(-c4cccnc4C)cccc23)cc(C)c1Cl` [Example 75, 3-(3-(3-(4-chloro-3,5-dimethylphenoxy)propyl)-2-methyl-7-(2-methylpyridin-3-yl)-1H-indol-1-yl)propanoic acid]: at most 0.1 µM; `CCn1nc(C)c(-c2cccc3c(CCCOc4cc(C)c(Cl)c(C)c4)c(C)n(CCC(=O)O)c23)c1C` [Example 77, 3-(3-(3-(4-chloro-3,5-dimethylphenoxy)propyl)-7-(1-ethyl-3,5-dimethyl-1H-pyrazol-4-yl)-2-methyl-1H-indol-1-yl)propanoic acid]: at most 0.1 µM; `Cc1cc(OCCCc2c(C)n(CCC(=O)O)c3c(-c4c(C)nn(CCN5CCOCC5)c4C)cccc23)cc(C)c1Cl` [Example 79, 3-(3-(3-(4-chloro-3,5-dimethylphenoxy)propyl)-7-(3,5-dimethyl-1-(2-morpholinoethyl)-1H-pyrazol-4-yl)-2-methyl-1H-indol-1-yl)propanoic acid]: at most 0.1 µM.
Next, `Cc1cc(OCCCc2c(C)n(CCC(=O)O)c3c(-c4c(C)nn(CCN5CCCC5)c4C)cccc23)cc(C)c1Cl` [Example 80, 3-(3-(3-(4-chloro-3,5-dimethylphenoxy)propyl)-7-(3,5-dimethyl-1-(2-(pyrrolidin-1-yl)ethyl)-1H-pyrazol-4-yl)-2-methyl-1H-indol-1-yl)propanoic acid]: at most 0.1 µM; `Cc1cc(OCCCc2c(C)n(CCC(=O)NS(C)(=O)=O)c3c(-c4ccnn4C)cccc23)cc(C)c1Cl` [Example 81, 3-(3-(3-(4-chloro-3,5-dimethylphenoxy)propyl)-2-methyl-7-(1-methyl-1H-pyrazol-5-yl)-1H-indol-1-yl)-N-(methylsulfonyl)propanamide]: at most 0.1 µM.
As for `Cc1ccncc1-c1cccc2c(CCCOc3cc(C)c(Cl)c(C)c3)c(C)n(CCC(=O)NS(C)(=O)=O)c12` [Example 82, 3-(3-(3-(4-chloro-3,5-dimethylphenoxy)propyl)-2-methyl-7-(4-methylpyridin-3-yl)-1H-indol-1-yl)-N-(methylsulfonyl)propanamide], the figure is at most 0.1 µM; as for `Cc1cc(OCCCc2c(C)n(CCC(=O)NS(C)(=O)=O)c3c(-c4cccn4C)cccc23)cc(C)c1Cl` [Example 84, 3-(3-(3-(4-chloro-3,5-dimethylphenoxy)propyl)-2-methyl-7-(1-methyl-1H-pyrrol-2-yl)-1H-indol-1-yl)-N-(methylsulfonyl)propanamide], at most 0.1 µM; as for `Cc1cc(OCCCc2c(C)n(CCC(=O)NS(C)(=O)=O)c3c(-c4c(C)nn(C)c4C)cccc23)cc(C)c1Cl` [Example 85, 3-(3-(3-(4-chloro-3,5-dimethylphenoxy)propyl)-2-methyl-7-(1,3,5-trimethyl-1H-pyrazol-4-yl)-1H-indol-1-yl)-N-(methylsulfonyl)propanamide], at most 0.1 µM.
For the compound `CCn1nc(C)c(-c2cccc3c(CCCOc4cc(C)c(Cl)c(C)c4)c(C)n(CCC(=O)NS(C)(=O)=O)c23)c1C` [Example 86, 3-(3-(3-(4-chloro-3,5-dimethylphenoxy)propyl)-7-(1-ethyl-3,5-dimethyl-1H-pyrazol-4-yl)-2-methyl-1H-indol-1-yl)-N-(methylsulfonyl)propanamide], the Ki was at most 0.1 µM.
For the compound `CCn1nc(C)c(-c2cccc3c(CCCOc4cc(C)c(Cl)c(C)c4)c(C)n(CCC(=O)NS(=O)(=O)c4ccccc4)c23)c1C` [Example 87, 3-(3-(3-(4-chloro-3,5-dimethylphenoxy)propyl)-7-(1-ethyl-3,5-dimethyl-1H-pyrazol-4-yl)-2-methyl-1H-indol-1-yl)-N-(phenylsulfonyl)propanamide], the Ki was at most 0.1 µM.
As for `Cc1cc(OCCCc2c(C)n(CCC(=O)NS(=O)(=O)Cc3ccccc3)c3c(-c4c(C)nn(C)c4C)cccc23)cc(C)c1Cl` [Example 88, N-(benzylsulfonyl)-3-(3-(3-(4-chloro-3,5-dimethylphenoxy)propyl)-2-methyl-7-(1,3,5-trimethyl-1H-pyrazol-4-yl)-1H-indol-1-yl)propanamide], the figure is at most 0.1 µM; as for `Cc1cc(OCCCc2c(C)n(CCC(=O)NS(=O)(=O)c3ccc4ccccc4c3)c3c(-c4c(C)nn(C)c4C)cccc23)cc(C)c1Cl` [Example 89, 3-(3-(3-(4-chloro-3,5-dimethylphenoxy)propyl)-2-methyl-7-(1,3,5-trimethyl-1H-pyrazol-4-yl)-1H-indol-1-yl)-N-(naphthalen-2-ylsulfonyl)propanamide], at most 0.1 µM; as for `Cc1cc(OCCCc2c(C)n(CCC(=O)NS(=O)(=O)c3ccc(Oc4ccccc4)cc3)c3c(-c4c(C)nn(C)c4C)cccc23)cc(C)c1Cl` [Example 90, 3-(3-(3-(4-chloro-3,5-dimethylphenoxy)propyl)-2-methyl-7-(1,3,5-trimethyl-1H-pyrazol-4-yl)-1H-indol-1-yl)-N-((4-phenoxyphenyl)sulfonyl)propanamide], at most 0.1 µM.
